Measured values reported in US20260102397A1, “PHARMACEUTICAL COMPOSITION FOR TREATING LEUKEMIA COMPRISING FLT3 INHIBITOR” (HANMI PHARM. CO., LTD., priority 2020, published 2026).

Columns and labels:
[1] = molecular target: T1, SYK (Homo sapiens, UniProt P43405); experiment: Kinase inhibition test, Z'-LYTE; type: biochemical; conditions: read-out: 50% activity inhibition value (IC50), SYK
T1 construct: purchased Thermo Fisher Scientific
Method: Activity measurement was conducted using LanthaScreen test method (wild type and mutation type FLT3) or Z′-LYTE test method (SYK) developed by Thermo Fisher Scientific. LanthaScreen test method is a method of measuring protein activity by measuring fluorescence resonance energy transfer (FRET) signal under the existence of europium-conjugated antibody on the basis of the binding of Alexa Fluor 647-labelled, ATP-competitive kinase inhibitor (kinase tracer-236) to kinase. Z′-LYTE test method is a method using an enzyme which can cut dephosphorylated substrate, and this method measures the activity of kinase protein by measuring two fluorescent FRET signals attached to each end of peptide substrate. The two experiments were all conducted in 384 well plates under the conditions of 50 mM HEPES pH 7.5, 0.01% BRIJ-35, 10 mM MgCl2, 1 mM EGTA, and 1% DMSO.

[2] = system: MOLM-14 FLT3-ITD/F691L cell strain; experiment: Mouse model hypodermically implanted with MOLM-14 FLT3-ITD/F691L cell strain; type: in vivo; conditions: nude mice, MOLM-14 FLT3-ITD/F691L subcutaneous, 30 mg/kg/day oral once daily
Method: MOLM-14 FLT3-ITD/F691L cell strain was subcutaneously injected into a nude mouse at 3×10^^6 cell/0.15 mL/mouse and the mouse was left to grow.
The control group was administered for 13 days and the drug administration groups were administered for 18 days with each pertinent drug.
The tumor volume (mm^3) of the surviving mice in each group was plotted on the y-axis, whereas the number of days of medication was plotted on the x-axis. In order to evaluate the effects of the administration of drugs, the results of complete response (CR) in which tumor had completely disappeared were checked. […] (*p<0.05, **p<0.01, ***p<0.001, and ****p<0.0001 Sidk's test was conducted after two-way analysis of variance)

With `Cc1ccc2c(-c3nc(Nc4cc(CN5C[C@@H](C)N[C@@H](C)C5)cc(C5CC5)c4)ncc3Cl)c[nH]c2c1` [Compound A, 5-chloro-N-(3-cyclopropyl-5-(((3R,5S)-3,5-dimethylpiperazine-1-yl)methyl)phenyl)-4-(6-methyl-1H-indol-3-yl)pyrimidine-2-amin] the IC50 [1] was 2.9 nM, the “complete response (CR, tumor completely disappeared), day of administration” value [2] was 12 days and the “volume of tumor compared with Gilteritinib administration group” value ([2]; 18 days, FIG. 1) was “reduced more significantly”.
